Converted amounts (≈) assume the structure as drawn.
How the values were obtained:
Liver microsome [1] = experiment: Intrinsic clearance in human liver microsomes at 1 uM by LC-MS analysis; format: ADME; settings: microsomes, 1 µM
J774 = experiment: Cytotoxicity against mouse J774 cells after 72 hrs by CellTiter 96 assay; format: cell-based; settings: J774, 72 h
[2] = Cytotoxicity index, ratio of EC50 for mouse J774 cells to EC50 for multi-drug-resistant Plasmodium falciparum TM90-C2B infected in human type A+ erythrocytes; format: toxicity, cell-based; settings: read-out: Ratio EC50
Plasmodium berghei [3] = experiment: Antimalarial activity against Plasmodium berghei ANKA expressing GFP infected in Balb/c mouse assessed as mouse survival at 50 mg/kg, po qd administered as single dose on day 3 to 5 of exposure measured on day 6 post exposure by in vivo thomson test relative to control; format: functional
[4] = Resistance index, ratio of EC50 for multi-drug-resistant Plasmodium falciparum TM90-C2B infected in human type A+ erythrocytes to EC50 for multi-drug-resistant Plasmodium falciparum W2 infected in human type A+ erythrocytes; format: functional
Plasmodium berghei [5] = experiment: Antimalarial activity against Plasmodium berghei ANKA expressing GFP infected in Balb/c mouse assessed as inhibition of parasitemia at 50 mg/kg, po qd administered as single dose on day 3 to 5 of exposure measured on day 6 post exposure by in vivo thomson test relative to control; format: functional
Plasmodium berghei [6] = experiment: Antimalarial activity against Plasmodium berghei ANKA expressing GFP infected in Balb/c mouse assessed as mouse survival at 10 mg/kg, po qd administered as single dose on day 3 to 5 of exposure measured on day 6 post exposure by in vivo thomson test relative to control; format: functional
Plasmodium berghei [7] = experiment: Antimalarial activity against Plasmodium berghei ANKA expressing GFP infected in Balb/c mouse assessed as inhibition of parasitemia at 10 mg/kg, po qd administered as single dose on day 3 to 5 of exposure measured on day 6 post exposure by in vivo thomson test relative to control; format: functional
Plasmodium falciparum [8] = experiment: Antimalarial activity against multi-drug-resistant Plasmodium falciparum W2 infected in human type A+ erythrocytes assessed as growth inhibition after 72 hrs by SYBR Green I assay; format: functional, organism-based; settings: W2, 72 h
Plasmodium berghei [9] = experiment: animal or person; settings: ANKA, in Mus musculus, read-out: INH
Plasmodium falciparum [10] = experiment: Antimalarial activity against multi-drug-resistant Plasmodium falciparum TM90-C2B infected in human type A+ erythrocytes assessed as growth inhibition after 72 hrs by SYBR Green I assay; format: functional, organism-based
Plasmodium berghei [11] = experiment: animal or person; settings: ANKA, in Mus musculus, read-out: INH; remark: listed apart in the source
Plasmodium berghei [12] = experiment: Antimalarial activity against Plasmodium berghei ANKA expressing GFP infected in Balb/c mouse assessed as mouse cured from disease at 10 mg/kg, po qd administered as single dose on day 3 to 5 of exposure measured on day 30 post exposure by in vivo thomson test relative to control; format: functional
Plasmodium berghei [13] = experiment: Antimalarial activity against Plasmodium berghei ANKA expressing GFP infected in Balb/c mouse assessed as mouse cured from disease at 50 mg/kg, po qd administered as single dose on day 3 to 5 of exposure measured on day 30 post exposure by in vivo thomson test relative to control; format: functional
Liver microsome [14] = experiment: Half life in human liver microsomes at 1 uM by LC-MS analysis; format: ADME
[15] = Aqueous solubility of the compound at pH 7.4; format: physicochemical; settings: buffer
[16] = octanol/water, pH 7.4
Plasmodium berghei [17] = experiment: Antimalarial activity against Plasmodium berghei ANKA expressing GFP infected in Balb/c mouse assessed as mouse survival at 3 mg/kg, po qd administered as single dose on day 3 to 5 of exposure measured on day 6 post exposure by in vivo thomson test relative to control; format: functional
Plasmodium berghei [18] = experiment: Antimalarial activity against Plasmodium berghei ANKA expressing GFP infected in Balb/c mouse assessed as inhibition of parasitemia at 3 mg/kg, po qd administered as single dose on day 3 to 5 of exposure measured on day 6 post exposure by in vivo thomson test relative to control; format: functional
Plasmodium berghei [19] = experiment: Antimalarial activity against Plasmodium berghei ANKA expressing GFP infected in Balb/c mouse assessed as mouse cured from disease at 3 mg/kg, po qd administered as single dose on day 3 to 5 of exposure measured on day 30 post exposure by in vivo thomson test relative to control; format: functional

| Structure (SMILES) | CLint_mic (Liver microsome [1]) | EC50 (J774) | selectivity ratio [2] | mouse survival time at 50 mg/kg (Plasmodium berghei [3]) | Ratio EC50 [4] | inhibition in vivo at 50 mg/kg (Plasmodium berghei [5]) | survival time at 10 mg/kg (Plasmodium berghei [6]) | inhibition in vivo at 10 mg/kg (Plasmodium berghei [7]) | EC50 (Plasmodium falciparum [8]) | inhibition in vivo at 50 mg/kg (Plasmodium berghei [9]) | EC50 (Plasmodium falciparum [10]) | inhibition in vivo at 50 mg/kg (Plasmodium berghei [11]) | Activity (Plasmodium berghei [12]) | Activity (Plasmodium berghei [13]) | t1/2 (Liver microsome [14]) | solubility kinetic [15] | logD [16] | survival time at 3 mg/kg (Plasmodium berghei [17]) | inhibition in vivo at 3 mg/kg (Plasmodium berghei [18]) | Activity (Plasmodium berghei [19]) |
| --- | --- | --- | --- | --- | --- | --- | --- | --- | --- | --- | --- | --- | --- | --- | --- | --- | --- | --- | --- | --- |
| CCc1c(C)[nH]c2cc(OC)c(Cl)cc2c1=O | 56 µL/min/mg | – | – | – | – | – | – | – | – | – | – | – | – | – | – | – | – | – | – | – |
| COc1cc2[nH]c(C)c(-c3ccccc3)c(=O)c2cc1Cl | 17 µL/min/mg | > 33.4 µM | > 2170 | 0 days | 0.59 | < 1% | – | – | – | – | – | – | – | – | – | – | – | – | – | – |
| COc1cc2[nH]c(C)c(-c3ccccc3C)c(=O)c2cc1Cl | – | > 31.9 µM | > 7910 | 0 days | 0.69 | 41% | 0 days | 17% | 5.83 nM | 9% | 4.03 nM | – | – | – | – | – | – | – | – | – |
| COc1cc2[nH]c(C)c(-c3ccncc3)c(=O)c2cc1Cl | 15 µL/min/mg | > 33.3 µM | > 152 | – | 1.71 | – | – | – | 128 nM | – | 219 nM | – | – | – | – | – | – | – | – | – |
| COc1cc2[nH]c(C)c(-c3ccc(N(C)C)nc3)c(=O)c2cc1Cl | – | > 29.1 µM | > 319 | 0 days | 0.12 | 22% | 0 days | < 1% | 748 nM | – | 91.1 nM | – | – | – | – | – | – | – | – | – |
| COc1cc2[nH]c(C)c(-c3ccc(N4CCN(C)CC4)nc3)c(=O)c2cc1Cl | – | > 25.1 µM | > 46.8 | – | 0.34 | – | – | – | 1580 nM | 0% | 536 nM | 0% | – | – | – | – | – | – | – | – |
| COc1cc2[nH]c(C)c(-c3ccco3)c(=O)c2cc1Cl | – | > 34.5 µM | > 4100 | 0 days | 0.25 | < 1% | 0 days | < 1% | 34.2 nM | – | 8.43 nM | – | – | – | – | – | – | – | – | – |
| COc1ccc(-c2c(C)[nH]c3cc(OC)c(Cl)cc3c2=O)cc1 | – | > 30.3 µM | > 2690 | – | 0.21 | – | – | – | 54 nM | 53.6% | 11.3 nM | 26.9% | – | – | – | – | – | – | – | – |
| COc1cc2[nH]c(C)c(-c3ccc(OC(C)C)cc3)c(=O)c2cc1Cl | – | > 27.9 µM | > 2220 | – | 0.22 | – | – | – | 58.4 nM | 41.4% | 12.6 nM | 26.8% | – | – | – | – | – | – | – | – |
| COc1cc2[nH]c(C)c(-c3ccc(CO)cc3)c(=O)c2cc1Cl | – | > 30.3 µM | > 323 | 0 days | 0.61 | < 1% | 0 days | < 1% | 154 nM | – | 93.9 nM | – | – | – | – | – | – | – | – | – |
| COc1cc2[nH]c(C)c(-c3ccc(-c4ccccc4)cc3)c(=O)c2cc1Cl | – | > 26.6 µM | > 6140 | 0 days | 2.43 | 79% | 0 days | 80% | 1.78 nM | 85.7% | 4.33 nM | 61% | – | – | – | – | – | – | – | – |
| COc1cc2[nH]c(C)c(-c3ccc(Oc4ccccc4)cc3)c(=O)c2cc1Cl | – | > 25.5 µM | > 19500 | 4 days | 0.55 | 70% | 4 days | 87% | 2.4 nM | 83.9% | 1.31 nM | 69% | 0% | 0% | – | – | – | – | – | – |
| COc1cc2[nH]c(C)c(-c3ccc(F)cc3)c(=O)c2cc1Cl | – | > 31.5 µM | > 879 | 1 days | 1.72 | 30% | 1 days | 63% | 20.8 nM | – | 35.8 nM | – | 0% | 0% | – | – | – | – | – | – |
| COc1cc2[nH]c(C)c(-c3ccc(F)cc3F)c(=O)c2cc1Cl | – | > 29.8 µM | > 668 | – | 1.7 | – | – | – | 26.3 nM | 44.3% | 44.6 nM | 29.1% | – | – | – | – | – | – | – | – |
| COc1cc2[nH]c(C)c(-c3ccc(C(F)(F)F)cc3)c(=O)c2cc1Cl | – | > 27.2 µM | > 4550 | 4 days | 0.96 | 97% | 3 days | 92% | 6.25 nM | – | 5.98 nM | – | 0% | 0% | – | – | – | – | – | – |
| COc1cc2[nH]c(C)c(-c3ccc(OC(F)(F)F)cc3)c(=O)c2cc1Cl | – | > 26.1 µM | > 3360 | – | 1.01 | – | – | – | 7.72 nM | 60% | 7.76 nM | 28.8% | – | – | – | – | – | – | – | – |
| COc1cc2[nH]c(C)c(-c3ccc(F)cc3C)c(=O)c2cc1Cl | – | 13.6 µM | 1690 | – | 1.07 | – | – | – | 7.52 nM | – | 8.07 nM | – | – | – | 116 min | < 2 µM | 2.7 | – | – | – |
| COc1cc2[nH]c(C)c(-c3ccc(C(F)(F)F)cc3C)c(=O)c2cc1Cl | – | > 26.2 µM | > 45300 | 0 days | 0.29 | – | 6 days | 80% | 2.02 nM | – | 0.578 nM | – | 0% | 0% | 236 min | < 2 µM | 2.7 | 23 days | 84% | 100% |
| COc1cc2[nH]c(C)c(-c3ccc(Oc4ccc(OC(F)(F)F)cc4)cc3C)c(=O)c2cc1Cl | – | > 20.4 µM | > 31600 | – | 2.07 | 98% | 23 days | 99% | 0.312 nM | – | 0.646 nM | – | 100% | – | – | < 2 µM | 2.1 | – | – | – |
| COc1cc2[nH]c(C)c(-c3ccc(COc4ccc(OC(F)(F)F)cc4)cc3)c(=O)c2cc1Cl | – | > 20.4 µM | > 12800 | – | 0.21 | – | – | – | 7.74 nM | – | 1.59 nM | – | – | – | 129 min | – | 4.4 | – | – | – |
| COc1cc2[nH]c(C)c(-c3ccc(OCc4ccccc4)c(F)c3)c(=O)c2cc1Cl | – | > 23.6 µM | > 2180 | – | 0.15 | – | – | – | 73.4 nM | – | 10.8 nM | – | – | – | 23 min | < 2 µM | 3.8 | – | – | – |
| CCCSc1ccc2nc(NC(=O)OC)[nH]c2c1 [ALBENDAZOLE] | – | – | – | – | – | – | – | – | – | – | – | – | – | – | – | 6.1 µM (≈ 1.62 µg/mL) | – | – | – | – |
| C[C@H]1[C@H](OC(=O)CCC(=O)O)O[C@@H]2O[C@@]3(C)CC[C@H]4[C@H](C)CC[C@@H]1[C@@]24OO3 [ARTESUNATE] | – | – | – | – | – | – | – | – | – | 97% | – | 81% | – | – | – | – | – | – | – | – |
| O=C1C(O)=C([C@H]2CC[C@H](c3ccc(Cl)cc3)CC2)C(=O)c2ccccc21 [ATOVAQUONE] | – | – | – | – | – | – | – | – | – | – | 18400 nM | – | – | 0% | – | – | – | – | – | – |

— ChEMBL document CHEMBL3351419, “Orally bioavailable 6-chloro-7-methoxy-4(1H)-quinolones efficacious against multiple stages of Plasmodium” (J Med Chem, 2014)
